Measurements as given in patent US12435087B2, “Modulators of DCN-1 and methods of use thereof” (Cellarity, Inc., priority 2023, dated 2025).
Like-named read-outs stand apart in the source and are kept apart here.

What was measured:
[1] = target: DCN1 (DCUND1) protein PONY domain (Homo sapiens (Human), UniProt Q96GG9); assay: TR-FRET assay (binding to DCN-1, displacement of FAM-labeled probe)
In short: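 Compounds read at 1, 5 and 24 h, 0.1% final DMSO, by TR-FRET between terbium-streptavidin on biotinylated DCN1 PONY domain (E. coli) and a FAM-tagged non-covalent inhibitor probe. Two setups used, 5 nM protein with 20 nM labelled probe, or 0.31 nM protein with 100 nM labelled plus 800 nM unlabelled probe; buffer had TritonX and 200 mM NaCl. % activity relative to high (with probe) and low (without probe) controls.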

[2] = target: DCN2 (DCUND2) protein PONY domain (Homo sapiens (Human), UniProt Q6PH85); assay: DCN2 TR-FRET assay, measurement of Kinact/KI; type: binding
DCN2 (DCUND2) protein PONY domain, sequence (Q6PH85 60-248): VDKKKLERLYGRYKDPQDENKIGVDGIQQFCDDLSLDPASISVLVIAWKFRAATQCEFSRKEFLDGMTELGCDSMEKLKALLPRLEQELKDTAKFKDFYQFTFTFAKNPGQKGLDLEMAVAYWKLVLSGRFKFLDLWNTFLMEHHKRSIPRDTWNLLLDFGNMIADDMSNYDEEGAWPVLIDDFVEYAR
Procedure: A TR-FRET Assay was performed to evaluate the ability of the compounds to bind DCN-2. The time resolved—Forster's resonance energy transfer (TR-FRET) assay was designed following the protocol established in (Scott et al., Nat Chem Biol. 2017 August; 13(8): 850-857). A recombinant form of the DCN2 (DCUND2) protein PONY domain was produced using an E. coli expression system at Viva Biotech China. The DCN2 protein was biotinylated (EZ sulfo-NHS-LC-biotin; Thermofisher) for labeling with 2.5 nM streptavidin terbium (Tb) cryptate in the reaction. The probe was changed to a non-covalent DCN1 inhibitor labeled with carboxyfluorescein (FAM; Zhou el al., Nat Commun. 2017; 8: 1150). Buffer conditions were modified to enhance protein stability by replacing TritonX with 0.05% Tween20 and increasing NaCl to 200 mM. […] The Kinact and KI measurements were taken to allow for continuous reads over 24 hrs. Plates were read every 5 min up to 1 hr, every 15 min up to 5 hr, and every hour up to 10 hours. Kinact and KI were calculated based on the following equations (Krippendorff B F, et al. Mechanism-based inhibition: deriving K(I) and k(inact) directly from time-dependent IC(50) values. J BiomolScreen. 2009; Mons E et al. A Comprehensive Guide for Assessing Covalent Inhibition in Enzymatic Assays Illustrated with Kinetic Simulations. […] The Kinact and KI values could be estimated from the tight curves of the IC50 values over time. [formula]

[3] = 24 hr after treatment with compound, read-out: TR FRET IC50 24 hr

DCN1 (DCUND1) protein PONY domain, sequence (Q96GG9 60-248): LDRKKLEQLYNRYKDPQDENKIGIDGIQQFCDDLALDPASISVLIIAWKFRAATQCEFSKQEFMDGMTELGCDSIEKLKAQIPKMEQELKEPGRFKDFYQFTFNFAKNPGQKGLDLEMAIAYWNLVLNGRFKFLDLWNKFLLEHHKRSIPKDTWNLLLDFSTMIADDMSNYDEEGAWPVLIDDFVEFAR

Row | Compound | IC50 [1, 3] | IC50 ([1]; read-out: TR FRET IC50 1 hr, 1 hr after treatment with compound) | Ki [2] | kinact [2] | kinact/KI [2] | IC50 ([1]; TR FRET IC50 1 hr (nM), 1 hr after treatment with compound)
1 | C=C(CN1CCOCC1)C(=O)Nc1cccc([C@@H]2c3c(C)nn(-c4ccccc4)c3N(CC)C(=O)[C@H]2NC(=O)c2cccc(C(F)(F)F)c2)c1 [Compound I-2, N-((4R,5S)-7-ethyl-3-methyl-4-(3-(2-(morpholinomethyl)acrylamido)phenyl)-6-oxo-1-phenyl-4,5,6,7-tetrahydro-1H-pyrazolo[3,4-b]pyridin-5-yl)-3-(trifluoromethyl)benzamide] | ≤ 200 nM | ≤ 200 nM | > 0.5 nM | 0.00333 to 0.005 s⁻¹ | 3.33e+06 to 8.33e+06 M⁻¹ s⁻¹ | –
2 | C/C=C(\CN1CCN(C2COC2)CC1)C(=O)Nc1cccc([C@@H]2c3cnn(-c4ccccc4)c3N(CC)C(=O)[C@H]2NC(=O)c2csc(C(F)(F)F)n2)c1 [Compound I-234, N-((4R,5S)-7-ethyl-4-(3-((E)-2-((4-(oxetan-3-yl)piperazin-1-yl)methyl)but-2-enamido)phenyl)-6-oxo-1-phenyl-4,5,6,7-tetrahydro-1H-pyrazolo[3,4-b]pyridin-5-yl)-2-(trifluoromethyl)thiazole-4-carboxamide] | ≤ 200 nM | – | > 0.5 nM | 0.00167 to 0.00333 s⁻¹ | 167000 to 3.33e+06 M⁻¹ s⁻¹ | ≤ 200 nM
